The assay deals with 171881-019-R-J1-PDC tumor spheroids, viability. Briefly: Anticancer human tumor 171881-019-R-J1-PDC patient-derived invasive breast carcinoma cell line growth inhibition [GQUAD]. The settings on record: spheroids with HUVEC and MSC; for viability, T/C: stronger effect = lower value. From the text:
DNA G-quadruplex Stabilizer Agents in Combinations in Complex Spheroids
A high-throughput screen of multi-cell type tumor spheroids was designed to identify active combinations of DNA G-quadruplex stabilizer agents and targeted small molecules. Complex spheroids include a stromal component modeled by human endothelial cells (HUVEC) and fibroblasts modeled by human mesenchymal stem cells (MSCs). The concentration ranges selected for each drug and investigational agent were based upon clinically achievable concentrations if the clinical Cmax of the agent was known.
Compounds. The drugs and investigational agents: pidnarulex (CX-5461; NSC782164), APTO-253 (NSC789042), BRACO-19 (NSC847499), peposertib (NSC802822), ceralasertib (NSC780249), elimusertib (NSC800525), camonsertib (NSC841442), AZD-1390 (NSC803789), olaparib (NSC753686), talazoparib (NSC767125), ART-558 (NSC835418), sotorasib (NSC818433), MRTX-1133 (NSC836407), SN-38 (NSC673596), topotecan (NSC609699), etoposide (NSC141540), doxorubicin (NSC123127), gemcitabine (NSC613327), 5-fluorouracil (NSC19893), paclitaxel (NSC125973), vemurafenib (NSC761431), panobinostat (NSC761190), R-306465 (JNJ-16241199; NSC773264), adavosertib (NSC754352), TP-3654 (NSC805149), carboplatin (NSC241240), KSQ-4279 (NSC840948), and staurosporine (NSC755774) were obtained from the National Cancer Institute (NCI) Developmental Therapeutics Program Chemical Repository (34). The FDA-approved anticancer drug set is available from the NCI Developmental Therapeutics Program. […] The stock solutions were prepared in dimethyl sulfoxide (DMSO, Sigma-Aldrich, St. Louis, MO, cat. D2650) at 800-fold the tested concentration and stored at -70 degrees C prior to their use. All drugs and investigational agents were tested over a range starting from a high concentration at or near the clinical Cmax and decreasing in half-log increments. If the clinical Cmax for an agent had not been determined, the highest concentration tested was 10 microM.
2.3 Cell Culture. All cells were maintained in an incubator at 37 degrees C and 5% CO2 with 95% humidity. The PDC lines were cultured according to standard operating procedures established by the NCI PDMR. All PDCs were thawed and cultured in Matrigel-coated flasks prepared with a working solution of 1X Ham's F-12 nutrient mix, without supplementation (Invitrogen, cat. 11765054), 100 U/mL penicillin-streptomycin (Invitrogen, cat. 15140122), and 2.5% Matrigel (Corning Inc., cat. 354248) for the first three passages. The 857933-349-R-J2-PDC line was cultured in 6C/Colon 1B media, which includes advanced DMEM/F-12 (Thermo Fisher Scientific, cat. 12634028), 10 mM HEPES (Thermo Fisher Scientific, cat. 15630080), 1X GlutaMAX supplement (Thermo Fisher Scientific, cat. 35050061), 0.1 mg/mL primocin (InvivoGen, cat. ant-pm-2), 10% defined fetal bovine serum, heat inactivated (HyClone Laboratories Inc., cat. SH30070.03HI), 50% L-WRN conditioned media (ATCC, cat. CRL-3276), 1.25 mM N-Acetyl-L-cysteine (Sigma-Aldrich, cat. A9165), 10 mM nicotinamide (Sigma-Aldrich, cat. N0636), 1X B-27 supplement (Thermo Fisher Scientific, cat. 17504044), 1X N-2 supplement (Thermo Fisher Scientific, cat. 17502048), 10 microM Y-27632 dihydrochloride (Tocris Bioscience, cat. 1254), and 50 ng/mL human EGF recombinant protein (Thermo Fisher Scientific, cat. PHG0311). The 485176-168-R4-J1-PDC line was cultured in Panc media, which includes all 6C/Colon 1B media components plus 100 ng/mL human FGF-10 (Thermo Fisher Scientific, cat. 100-26), 500 nM SB-431542 (Selleckchem, cat. S1067), and gastrin (Tocris, cat. 3006).
[…]

[1] abbreviates: curve of first compound, second compound 0.0316 µM.
Where [2] appears, read: curve of first compound, second compound 0.1 µM.
The mark [3] stands for this setting: curve of first compound, second compound 0.316 µM.
Setting [4] is: curve of first compound, second compound 1 µM.
The mark [5] stands for this setting: curve of first compound, second compound 3.16 µM.
Where [6] appears, read: curve of first compound, second compound 10 µM.
Setting [7] is: second compound 0.0316 µM, first compound 0.0316 µM.
Setting [8] is: second compound 0.0316 µM, first compound 0.1 µM.
Setting [9] is: second compound 0.0316 µM, first compound 0.316 µM.
Where [10] appears, read: second compound 0.0316 µM, first compound 1 µM.
Setting [11] is: second compound 0.0316 µM, first compound 3.16 µM.
[12] abbreviates: second compound 0.0316 µM, first compound 10 µM.
Where [13] appears, read: second compound 0.1 µM, first compound 0.0316 µM.
Where [14] appears, read: second compound 0.1 µM, first compound 0.1 µM.
Setting [15] is: second compound 0.1 µM, first compound 0.316 µM.
[16] abbreviates: second compound 0.1 µM, first compound 1 µM.
Setting [17] is: second compound 0.1 µM, first compound 3.16 µM.
The mark [18] stands for this setting: second compound 0.1 µM, first compound 10 µM.
[19] abbreviates: second compound 0.316 µM, first compound 0.0316 µM.
The mark [20] stands for this setting: second compound 0.316 µM, first compound 0.1 µM.
[21] abbreviates: second compound 0.316 µM, first compound 0.316 µM.
[22] abbreviates: second compound 0.316 µM, first compound 1 µM.
Where [23] appears, read: second compound 0.316 µM, first compound 3.16 µM.
Setting [24] is: second compound 0.316 µM, first compound 10 µM.
Where [25] appears, read: second compound 1 µM, first compound 0.0316 µM.
[26] abbreviates: second compound 1 µM, first compound 0.1 µM.
The mark [27] stands for this setting: second compound 1 µM, first compound 0.316 µM.
Setting [28] is: second compound 1 µM, first compound 1 µM.
Setting [29] is: second compound 1 µM, first compound 3.16 µM.
The mark [30] stands for this setting: second compound 1 µM, first compound 10 µM.
Setting [31] is: second compound 3.16 µM, first compound 0.0316 µM.
[32] abbreviates: second compound 3.16 µM, first compound 0.1 µM.
[33] abbreviates: second compound 3.16 µM, first compound 0.316 µM.
The mark [34] stands for this setting: second compound 3.16 µM, first compound 1 µM.
Setting [35] is: second compound 3.16 µM, first compound 3.16 µM.
[36] abbreviates: second compound 3.16 µM, first compound 10 µM.
[37] abbreviates: second compound 10 µM, first compound 0.0316 µM.
Setting [38] is: second compound 10 µM, first compound 0.1 µM.
The mark [39] stands for this setting: second compound 10 µM, first compound 0.316 µM.
[40] abbreviates: second compound 10 µM, first compound 1 µM.
Where [41] appears, read: second compound 10 µM, first compound 3.16 µM.
The mark [42] stands for this setting: second compound 10 µM, first compound 10 µM.

Several values for one entry are separate records, joined by “and”; a condition that tells them apart may be missing. Equal values may be shown once.
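Further: spheroids exposed to compounds for 7 days.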

For `O=c1[nH]cc(F)c(=O)[nH]1` + Cc1[nH]c2ccc(F)cc2c1-c1nc2c3cccnc3c3ncccc3c2[nH]1, the IC50 under setting [1] is more than 10000 nM; the IC50 under setting [2] was more than 10000 nM; the IC50 under setting [3] is more than 10000 nM; the IC50 under setting [4] was more than 10000 nM; the half-maximal inhibitory concentration (IC50) under setting [5] was less than 31.6 nM; the IC50 under setting [6] was less than 31.6 nM. Besides, the viability, T/C under setting [7] was 75.7%; the viability, T/C under setting [8] was 64.5%; the viability, T/C under setting [9] was 62.7%; the viability, T/C under setting [10] was 54.1%; the viability, T/C under setting [11] was 47.7%; the viability, T/C under setting [12] was 53%. The viability, T/C reads like this: under setting [13], 80.5%; under setting [14], 70.7%; under setting [15], 60.9%; under setting [16], 54.7%; under setting [17], 50.5%; under setting [18], 53.5%. Moreover, the viability, T/C reads like this: under setting [19], 73.1%; under setting [20], 65.8%; under setting [21], 59.3%; under setting [22], 52.7%; under setting [23], 58.7%; under setting [24], 52%. The viability, T/C reads like this: under setting [25], 68.6%; under setting [26], 55.4%; under setting [27], 56.6%; under setting [28], 50.2%; under setting [29], 54.3%; under setting [30], 48.8%. In addition, the viability, T/C runs as follows: under setting [31], 21%; under setting [32], 21.6%; under setting [33], 30.6%; under setting [34], 23.8%; under setting [35], 24.2%; under setting [36], 24.7%. For the same molecule, the viability, T/C under setting [37] was 44.4%; the viability, T/C under setting [38] was 47.8%; the viability, T/C under setting [39] was 47.3%; the viability, T/C under setting [40] was 42%; the viability, T/C under setting [41] was 52.1%; the viability, T/C under setting [42] is 38.8%.
As for `O=c1[nH]cc(F)c(=O)[nH]1` + Cc1cnc(CNC(=O)c2c(=O)c3ccc(N4CCCN(C)CC4)nc3n3c2sc2ccccc23)cn1, the half-maximal inhibitory concentration (IC50) is, setting by setting: under setting [1], more than 10000 nM; under setting [2], more than 10000 nM; under setting [3], more than 10000 nM; under setting [4], more than 10000 nM; under setting [5], more than 10000 nM; under setting [6], more than 10000 nM. For the same molecule, the viability, T/C was 80.2% under setting [7]; 69.5% under setting [8]; 57.5% under setting [9]; 57.4% under setting [10]; 54.5% under setting [11]; 57% under setting [12]. Further, the viability, T/C was 77.7% under setting [13]; 67.7% under setting [14]; 62.2% under setting [15]; 58.3% under setting [16]; 59.4% under setting [17]; 60.4% under setting [18]. For the same molecule, the viability, T/C is, setting by setting: under setting [19], 68.9%; under setting [20], 71.2%; under setting [21], 65.6%; under setting [22], 58.7%; under setting [23], 65.2%; under setting [24], 59.4%. In addition, the viability, T/C is, setting by setting: under setting [25], 67.7%; under setting [26], 60.6%; under setting [27], 65.5%; under setting [28], 60.2%; under setting [29], 66.2%; under setting [30], 63.1%. For the same molecule, the viability, T/C was 65% under setting [31]; 59.6% under setting [32]; 58.9% under setting [33]; 55.5% under setting [34]; 65% under setting [35]; 62.3% under setting [36]. Moreover, the viability, T/C reads like this: under setting [37], 59.1%; under setting [38], 59.6%; under setting [39], 55.1%; under setting [40], 57.7%; under setting [41], 61.5%; under setting [42], 54%.
`CC1COCCN1c1cc(-c2ccnn2C)c2ccnc(-c3ccn[nH]3)c2n1` (stereo not given): the viability, T/C is, setting by setting: (compound 0.0316 µM) 65.6% and 74.5% and 75.8%; (compound 0.1 µM) 35.5% and 31.4% and 31.2%; (compound 0.316 µM) 15.8% and 12.9% and 15.2%; (compound 1 µM) 8.71% and 4.99% and 7.86%; (compound 3.16 µM) 5% and 2.03%; (compound 10 µM) 4.63% and 1.67% and 5.37%. Also, the half-inhibitory concentration (IC50) (curve of compound) is 57.4 nM and 61 nM and 62 nM.
With `Cc1[nH]c2ccccc2c1CCNCc1ccc(/C=C/C(=O)NO)cc1`, the viability, T/C reads like this: (compound 0.000999 µM) 93.1% and 97% and 99.3%; (compound 0.00316 µM) 90.7% and 88% and 95.2%; (compound 0.00999 µM) 91.3% and 87.6% and 84.2%; (compound 0.0316 µM) 83.3% and 83.6% and 75.6%; (compound 0.0999 µM) 21.4% and 22.6% and 29%; (compound 0.316 µM) 0.4% and 0.47% and 1.04%. Moreover, for the setting “curve of compound”, the IC50 is 58.7 nM and 59.5 nM and 58.2 nM.
For `CC(=O)O[C@H]1C(=O)[C@@]2(C)[C@H]([C@H](OC(=O)c3ccccc3)[C@]3(O)C[C@H](OC(=O)[C@H](O)[C@@H](NC(=O)c4ccccc4)c4ccccc4)C(C)=C1C3(C)C)[C@]1(OC(C)=O)CO[C@@H]1C[C@@H]2O`, the viability, T/C by setting is: (compound 0.0316 µM) 50.5% and 44.8% and 33.4%; (compound 0.1 µM) 32.6% and 33.4% and 25.7%; (compound 0.316 µM) 32% and 29.3% and 21.5%; (compound 1 µM) 29.8% and 26.7% and 22.8%; (compound 3.16 µM) 29.6% and 24.3% and 23.2%; (compound 10 µM) 29.6% (2×) and 24%. Besides, the IC50 (curve of compound) is less than 31.6 nM.

A word on the IC50: it is the concentration that gives 50% inhibition. Broadly, the viability, T/C is the ratio of treated to control.
